# Assay results: US20240159750A1, “METHODS FOR DIAGNOSIS AND TREATMENT OF COVID-19” (priority 2021, published 2024)
# Tests used:
# [1] = test system: hospitalized COVID-19 patients; conditions: interim report, WHO solidarity trial; cited from earlier work
# C2 and PC cells = type: cell-based, rat; conditions: serum-starved C2 cells (TYMP-overexpressing VSMC)
Compound,effect on hospitalized COVID-19 patients [1],NF-κB activation (p65 phosphorylation at T254) (C2 and PC cells)
CCN(CCO)CCCC(C)Nc1ccnc2cc(Cl)ccc12 (stereo not drawn) [hydroxychloroquine],little or no effect,–
Cc1cccc(C)c1OCC(=O)N[C@@H](Cc1ccccc1)[C@@H](O)C[C@H](Cc1ccccc1)NC(=O)[C@H](C(C)C)N1CCCNC1=O [lopinavir],little or no effect,–
Pam3CSK4,–,dramatically increased
